Numbered stars: 1 amine (or outer) side, 2 acyl side, 3 side chain; on linkers, the order of the positions; unused ones are H or OH. Bridge positions count the residues as written; N and C are the ends. Square brackets hold non-standard residues; d marks the D form. Peptide text beside a SMILES is read from it. ξ: configuration not given here. Trp(5-F) = N[C@@H](Cc1c[nH]c2ccc(F)cc12)C(=O)O; Trp(7-aza) = N[C@@H](Cc1c[nH]c2ncccc12)C(=O)O; NMePhe(4-F) = CN[C@@H](Cc1ccc(F)cc1)C(=O)O; X4 = CC(N[*:1])(C(=O)[*:2])c1cccc2ccccc12; NMeW = CN[C@@H](Cc1c[nH]c2ccccc12)C(=O)O; mXylylene = c1cc(C[*:1])cc(C[*:2])c1; NMeY = CN[C@@H](Cc1ccc(O)cc1)C(=O)O; NMeD = CN[C@@H](CC(=O)O)C(=O)O; Tle = CC(C)(C)[C@H](N)C(=O)O; ξhPhe = NC(CCc1ccccc1)C(=O)O; NMeC = CN[C@@H](CS)C(=O)O; Pip = O=C(O)[C@@H]1CCCCN1; Aze = O=C(O)[C@@H]1CCN1; Nva = CCC[C@H](N)C(=O)O; ξNle = CCCCC(N)C(=O)O; Mpa = O=C(O)CCS; Sar = CNCC(=O)O
Biological target: PCSK9/LDLR (Homo sapiens, UniProt Q8NBP7)
Test: Inhibition of avi-tagged-biotinylated human PCSK9 interaction with His-tagged human LDLR EGFa domain by LANCE Ulight Streptavidin based TR-FRET assay
Format: protein assay

Sequence of PCSK9/LDLR (Q8NBP7 31-152 limits assumed): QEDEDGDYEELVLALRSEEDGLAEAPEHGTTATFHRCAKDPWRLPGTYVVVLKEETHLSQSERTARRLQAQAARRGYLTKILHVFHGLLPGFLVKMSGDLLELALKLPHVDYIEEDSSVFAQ
Sequence of PCSK9/LDLR (Q8NBP7 153-692 limits assumed): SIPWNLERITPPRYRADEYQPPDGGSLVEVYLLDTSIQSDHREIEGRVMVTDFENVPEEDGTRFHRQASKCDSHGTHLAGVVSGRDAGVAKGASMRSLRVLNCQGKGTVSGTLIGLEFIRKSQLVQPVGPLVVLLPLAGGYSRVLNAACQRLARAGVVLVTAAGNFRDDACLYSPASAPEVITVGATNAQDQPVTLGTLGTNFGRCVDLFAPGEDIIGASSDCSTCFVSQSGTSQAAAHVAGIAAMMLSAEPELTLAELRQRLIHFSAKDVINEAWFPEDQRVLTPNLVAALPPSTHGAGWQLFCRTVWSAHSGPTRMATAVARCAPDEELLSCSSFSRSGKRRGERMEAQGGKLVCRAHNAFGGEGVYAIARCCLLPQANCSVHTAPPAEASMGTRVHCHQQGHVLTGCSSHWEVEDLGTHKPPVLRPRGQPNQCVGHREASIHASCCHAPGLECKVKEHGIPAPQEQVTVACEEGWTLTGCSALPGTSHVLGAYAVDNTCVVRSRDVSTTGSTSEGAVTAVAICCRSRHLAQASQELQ
Sequence of PCSK9/LDLR (P01130 22-860 partner limits assumed): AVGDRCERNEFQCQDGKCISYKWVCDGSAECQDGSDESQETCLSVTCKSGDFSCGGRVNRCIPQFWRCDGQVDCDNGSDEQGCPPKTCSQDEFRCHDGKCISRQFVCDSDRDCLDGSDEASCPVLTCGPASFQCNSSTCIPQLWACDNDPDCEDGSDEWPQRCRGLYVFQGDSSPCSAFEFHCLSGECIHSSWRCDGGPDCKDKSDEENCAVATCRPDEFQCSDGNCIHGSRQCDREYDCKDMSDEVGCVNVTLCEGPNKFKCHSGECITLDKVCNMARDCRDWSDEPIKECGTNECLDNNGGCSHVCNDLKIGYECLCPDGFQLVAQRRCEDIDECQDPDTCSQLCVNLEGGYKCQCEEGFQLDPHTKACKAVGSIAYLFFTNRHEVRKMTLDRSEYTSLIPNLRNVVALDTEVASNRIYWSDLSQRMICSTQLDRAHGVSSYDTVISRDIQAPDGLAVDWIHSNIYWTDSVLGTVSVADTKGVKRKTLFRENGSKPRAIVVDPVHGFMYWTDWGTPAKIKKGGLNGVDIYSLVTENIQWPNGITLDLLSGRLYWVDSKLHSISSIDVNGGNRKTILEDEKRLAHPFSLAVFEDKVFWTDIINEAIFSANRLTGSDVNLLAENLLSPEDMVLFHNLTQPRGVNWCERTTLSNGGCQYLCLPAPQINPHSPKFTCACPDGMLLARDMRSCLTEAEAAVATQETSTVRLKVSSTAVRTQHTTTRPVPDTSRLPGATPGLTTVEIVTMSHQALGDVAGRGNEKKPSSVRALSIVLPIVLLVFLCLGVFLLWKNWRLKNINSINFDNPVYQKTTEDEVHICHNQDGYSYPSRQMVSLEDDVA

SMILES | Ki
CN1C(=O)CNC(=O)[C@H](CCCCN)NC(=O)CCSCc2cccc(c2)CSC[C@@H](C(N)=O)NC(=O)[C@@H]2CCCN2C(=O)[C@H](Cc2ccc(O)cc2)NC(=O)[C@H](Cc2cnc[nH]2)NC(=O)[C@H](CC(=O)O)NC(=O)[C@H](Cc2c[nH]c3ccc(F)cc23)NC(=O)[C@@H]1Cc1c[nH]c2ccccc12 ([Mpa]KG[NMeW][Trp(5-F)]DHYPC-NH2; linker 1-10 via mXylylene) | > 48000 nM
CC(=O)N[C@H]1CSCc2cccc(c2)CSC[C@@H](C(N)=O)NC(=O)[C@@H]2CCCN2C(=O)[C@H](Cc2ccc(O)cc2)NC(=O)[C@H](Cc2cnc[nH]2)NC(=O)[C@H](CC(=O)O)NC(=O)[C@H](Cc2c[nH]c3ccccc23)NC(=O)[C@H](Cc2c[nH]c3ccc(F)cc23)NC(=O)CNC(=O)[C@H](CCCCN)NC1=O (Ac-CKG[Trp(5-F)]WDHYPC-NH2; linker 1-10 via mXylylene) | 1070 nM
C[C@@H]1NC(=O)[C@H](Cc2cnc[nH]2)NC(=O)[C@H](CC(=O)O)NC(=O)[C@H](Cc2c[nH]c3ccc(F)cc23)NC(=O)[C@H](Cc2c[nH]c3ccc(F)cc23)NC(=O)CNC(=O)[C@H](CCCCN)NC(=O)CCSCc2cccc(c2)CSC[C@@H](C(N)=O)NC(=O)[C@@H]2CCCN2C1=O ([Mpa]KG[Trp(5-F)][Trp(5-F)]DHAPC-NH2; linker 1-10 via mXylylene) | > 48000 nM
NCCCC[C@@H]1NC(=O)CCSCc2cccc(c2)CSC[C@@H](C(N)=O)NC(=O)[C@@H]2CCCN2C(=O)[C@H](Cc2ccc(O)cc2)NC(=O)[C@H](Cc2cnc[nH]2)NC(=O)[C@H](CC(=O)O)NC(=O)[C@H](Cc2c[nH]c3ccc(F)cc23)NC(=O)C(CCc2ccccc2)NC(=O)CNC1=O (stereo partly drawn) ([Mpa]KG[ξhPhe][Trp(5-F)]DHYPC-NH2; linker 1-10 via mXylylene) | 2210 nM
CN1C(=O)[C@H](Cc2c[nH]c3ccc(F)cc23)NC(=O)[C@H](Cc2c[nH]c3ccc(F)cc23)NC(=O)CNC(=O)[C@H](CCCCN)NC(=O)CCSCc2cccc(c2)CSC[C@@H](C(N)=O)NC(=O)[C@@H]2CCCN2C(=O)[C@H](Cc2ccc(O)cc2)NC(=O)[C@H](Cc2cnc[nH]2)NC(=O)[C@@H]1CC(=O)O ([Mpa]KG[Trp(5-F)][Trp(5-F)][NMeD]HYPC-NH2; linker 1-10 via mXylylene) | 12900 nM
CN1C(=O)[C@@H]2CCCN2C(=O)[C@H](Cc2ccc(O)cc2)NC(=O)[C@H](Cc2cnc[nH]2)NC(=O)[C@H](CC(=O)O)NC(=O)[C@H](Cc2c[nH]c3ccc(F)cc23)NC(=O)[C@H](Cc2c[nH]c3ccc(F)cc23)NC(=O)CNC(=O)[C@H](CCCCN)NC(=O)CCSCc2cccc(c2)CSC[C@H]1C(N)=O ([Mpa]KG[Trp(5-F)][Trp(5-F)]DHYP[NMeC]-NH2; linker 1-10 via mXylylene) | > 48000 nM
C[C@@H]1NC(=O)[C@H](Cc2c[nH]c3ccc(F)cc23)NC(=O)CNC(=O)[C@H](CCCCN)NC(=O)CCSCc2cccc(c2)CSC[C@@H](C(N)=O)NC(=O)[C@@H]2CCCN2C(=O)[C@H](Cc2ccc(O)cc2)NC(=O)[C@H](Cc2cnc[nH]2)NC(=O)[C@H](CC(=O)O)NC1=O ([Mpa]KG[Trp(5-F)]ADHYPC-NH2; linker 1-10 via mXylylene) | > 48000 nM
CN1CC(=O)N[C@@H](Cc2c[nH]c3ccc(F)cc23)C(=O)N[C@@H](Cc2c[nH]c3ccc(F)cc23)C(=O)N[C@@H](CC(=O)O)C(=O)N[C@@H](Cc2cnc[nH]2)C(=O)N[C@@H](Cc2ccc(O)cc2)C(=O)N2CCC[C@H]2C(=O)N[C@H](C(N)=O)CSCc2cccc(c2)CSCCC(=O)N[C@@H](CCCCN)C1=O ([Mpa]K[Sar][Trp(5-F)][Trp(5-F)]DHYPC-NH2; linker 1-10 via mXylylene) | 4090 nM
NCCCC[C@@H]1NC(=O)CCSCc2cccc(c2)CSC[C@@H](C(N)=O)NC(=O)[C@@H]2CCCN2C(=O)[C@@H](Cc2ccc(O)cc2)NC(=O)[C@H](Cc2cnc[nH]2)NC(=O)[C@H](CC(=O)O)NC(=O)[C@H](Cc2c[nH]c3ccc(F)cc23)NC(=O)[C@H](Cc2c[nH]c3ccc(F)cc23)NC(=O)CNC1=O | > 48000 nM
NCCCC[C@@H]1NC(=O)CCSCc2cccc(c2)CSC[C@@H](C(N)=O)NC(=O)[C@@H]2CCCN2C(=O)[C@H](Cc2ccc(O)cc2)NC(=O)[C@H](Cc2cnc[nH]2)NC(=O)[C@@H](CC(=O)O)NC(=O)[C@H](Cc2c[nH]c3ccc(F)cc23)NC(=O)[C@H](Cc2c[nH]c3ccc(F)cc23)NC(=O)CNC1=O | > 48000 nM
CN1CC(=O)N[C@H](C(N)=O)CSCc2cccc(c2)CSCCC(=O)N[C@@H](CCCCN)C(=O)NCC(=O)N[C@@H](Cc2c[nH]c3ccc(F)cc23)C(=O)N[C@@H](Cc2c[nH]c3ccc(F)cc23)C(=O)N[C@@H](CC(=O)O)C(=O)N[C@@H](Cc2cnc[nH]2)C(=O)N[C@@H](Cc2ccc(O)cc2)C1=O ([Mpa]KG[Trp(5-F)][Trp(5-F)]DHY[Sar]C-NH2; linker 1-10 via mXylylene) | 10700 nM
C[C@@H]1NC(=O)[C@H](CCCCN)NC(=O)CCSCc2cccc(c2)CSC[C@@H](C(N)=O)NC(=O)[C@@H]2CCCN2C(=O)[C@H](Cc2ccc(O)cc2)NC(=O)[C@H](Cc2cnc[nH]2)NC(=O)[C@H](CC(=O)O)NC(=O)[C@H](Cc2c[nH]c3ccc(F)cc23)NC(=O)[C@H](Cc2c[nH]c3ccc(F)cc23)NC1=O ([Mpa]KA[Trp(5-F)][Trp(5-F)]DHYPC-NH2; linker 1-10 via mXylylene) | > 48000 nM
CN1C(=O)[C@H](Cc2c[nH]c3ccc(F)cc23)NC(=O)CNC(=O)[C@H](CCCCN)NC(=O)CCSCc2cccc(c2)CSC[C@@H](C(N)=O)NC(=O)[C@@H]2CCCN2C(=O)[C@H](Cc2ccc(O)cc2)NC(=O)[C@H](Cc2cnc[nH]2)NC(=O)[C@H](CC(=O)O)NC(=O)[C@@H]1Cc1c[nH]c2ccccc12 ([Mpa]KG[Trp(5-F)][NMeW]DHYPC-NH2; linker 1-10 via mXylylene) | > 48000 nM

These reach a lower Ki. Values come first.

Ki | SMILES
67.5 nM | NCCCC[C@@H]1NC(=O)CCSCc2cccc(c2)CSC[C@@H](C(N)=O)NC(=O)[C@@H]2CCN2C(=O)[C@H](Cc2ccc(O)cc2)NC(=O)[C@H](Cc2cnc[nH]2)NC(=O)[C@H](CC(=O)O)NC(=O)[C@H](Cc2c[nH]c3ccc(F)cc23)NC(=O)[C@H](Cc2c[nH]c3ccc(F)cc23)NC(=O)CNC1=O ([Mpa]KG[Trp(5-F)][Trp(5-F)]DHY[Aze]C-NH2; linker 1-10 via mXylylene)
969 nM | NCCCC[C@@H]1NC(=O)CCSCc2cccc(c2)CSC[C@@H](C(N)=O)NC(=O)[C@@H]2CCCCN2C(=O)[C@H](Cc2ccc(O)cc2)NC(=O)[C@H](Cc2cnc[nH]2)NC(=O)[C@H](CC(=O)O)NC(=O)[C@H](Cc2c[nH]c3ccc(F)cc23)NC(=O)[C@H](Cc2c[nH]c3ccc(F)cc23)NC(=O)CNC1=O ([Mpa]KG[Trp(5-F)][Trp(5-F)]DHY[Pip]C-NH2; linker 1-10 via mXylylene)
525 nM | C[C@@H]1NC(=O)[C@H](CC(=O)O)NC(=O)[C@H](Cc2c[nH]c3ccc(F)cc23)NC(=O)[C@H](Cc2c[nH]c3ccc(F)cc23)NC(=O)CNC(=O)[C@H](CCCCN)NC(=O)CCSCc2cccc(c2)CSC[C@@H](C(N)=O)NC(=O)[C@@H]2CCCN2C(=O)[C@H](Cc2ccc(O)cc2)NC1=O ([Mpa]KG[Trp(5-F)][Trp(5-F)]DAYPC-NH2; linker 1-10 via mXylylene)
956 nM | CC(=O)N[C@@H](Cc1cnc[nH]1)C(=O)N(C)[C@@H](Cc1ccc(F)cc1)C(=O)N[C@H]1CSCc2cccc(c2)CSC[C@@H](C(N)=O)NC(=O)[C@@H]2CCCN2C(=O)[C@H](Cc2ccc(O)cc2)NC(=O)[C@H](Cc2cnc[nH]2)NC(=O)[C@H](CC(=O)O)NC(=O)[C@H](Cc2c[nH]c3ccc(F)cc23)NC(=O)[C@H](Cc2c[nH]c3ccc(F)cc23)NC(=O)CNC(=O)[C@H](CCCCN)NC1=O (Ac-H[NMePhe(4-F)]CKG[Trp(5-F)][Trp(5-F)]DHYPC-NH2; linker 3-12 via mXylylene)
47.1 nM | CC(=O)N[C@H]1CSCc2cccc(c2)CSC[C@@H](C(N)=O)NC(=O)[C@@H]2CCCN2C(=O)[C@H](Cc2ccc(O)cc2)NC(=O)[C@H](Cc2cnc[nH]2)NC(=O)[C@H](CC(=O)O)NC(=O)[C@H](Cc2c[nH]c3ccc(F)cc23)NC(=O)[C@H](Cc2c[nH]c3ccc(F)cc23)NC(=O)CNC(=O)[C@H](CCCCN)NC1=O (Ac-CKG[Trp(5-F)][Trp(5-F)]DHYPC-NH2; linker 1-10 via mXylylene)
134 nM | CCCCC(NC(C)=O)C(=O)N[C@H]1CSCc2cccc(c2)CSC[C@@H](C(N)=O)NC(=O)[C@H]([C@@H](C)O)NC(=O)[C@H](CCC)NC(=O)[C@H](Cc2ccc(O)cc2)NC(=O)[C@H](CCC(=O)O)NC(=O)[C@H](CCC)NC(=O)[C@H](Cc2c[nH]c3ncccc23)NC(=O)[C@H]([C@@H](C)O)NC(=O)[C@H](Cc2cnc[nH]2)NC(=O)[C@H](Cc2ccc(O)cc2)NC(=O)[C@H](C(C)(C)C)NC1=O (stereo partly drawn) (Ac-[ξNle]C[Tle]YHT[Trp(7-aza)][Nva]EY[Nva]TC-NH2; linker 2-13 via mXylylene)
63 nM | CC1(c2cccc3ccccc23)NC(=O)CNC(=O)[C@H](CCCCN)NC(=O)CCSCc2cccc(c2)CSC[C@@H](C(N)=O)NC(=O)[C@@H]2CCCN2C(=O)[C@H](Cc2ccc(O)cc2)NC(=O)[C@H](Cc2cnc[nH]2)NC(=O)[C@H](CC(=O)O)NC(=O)[C@H](Cc2c[nH]c3ccc(F)cc23)NC1=O (stereo partly drawn) ([Mpa]KG[X4][Trp(5-F)]DHYPC-NH2; linker 1-10 via mXylylene)
112 nM | CN1C(=O)[C@H](Cc2cnc[nH]2)NC(=O)[C@H](CC(=O)O)NC(=O)[C@H](Cc2c[nH]c3ccc(F)cc23)NC(=O)[C@H](Cc2c[nH]c3ccc(F)cc23)NC(=O)CNC(=O)[C@H](CCCCN)NC(=O)CCSCc2cccc(c2)CSC[C@@H](C(N)=O)NC(=O)[C@@H]2CCCN2C(=O)[C@@H]1Cc1ccc(O)cc1 ([Mpa]KG[Trp(5-F)][Trp(5-F)]DH[NMeY]PC-NH2; linker 1-10 via mXylylene)
427 nM | C[C@@H]1NC(=O)[C@H](Cc2c[nH]c3ccc(F)cc23)NC(=O)[C@H](Cc2c[nH]c3ccc(F)cc23)NC(=O)CNC(=O)[C@H](CCCCN)NC(=O)CCSCc2cccc(c2)CSC[C@@H](C(N)=O)NC(=O)[C@@H]2CCCN2C(=O)[C@H](Cc2ccc(O)cc2)NC(=O)[C@H](Cc2cnc[nH]2)NC1=O ([Mpa]KG[Trp(5-F)][Trp(5-F)]AHYPC-NH2; linker 1-10 via mXylylene)
656 nM | C[C@@H]1NC(=O)CNC(=O)[C@H](CCCCN)NC(=O)CCSCc2cccc(c2)CSC[C@@H](C(N)=O)NC(=O)[C@@H]2CCCN2C(=O)[C@H](Cc2ccc(O)cc2)NC(=O)[C@H](Cc2cnc[nH]2)NC(=O)[C@H](CC(=O)O)NC(=O)[C@H](Cc2c[nH]c3ccc(F)cc23)NC1=O ([Mpa]KGA[Trp(5-F)]DHYPC-NH2; linker 1-10 via mXylylene)

Reference: ChEMBL document CHEMBL4699634, “Series of Novel and Highly Potent Cyclic Peptide PCSK9 Inhibitors Derived from an mRNA Display Screen and Optimized via Structure-Based Design” (J Med Chem, 2020)
